Test results reported in ChEMBL document CHEMBL1133129, “A focused compound library of novel N-(7-indolyl)benzenesulfonamides for the discovery of potent cell cycle inhibitors” (Bioorg Med Chem Lett, 2000).
≈ marks a conversion by molar mass, not a printed value. Calls of active or inactive are those of the source. The calls are words filed in the database; no cut-off is given here.

system: MC-38; experiment: In vitro antiproliferative activity measured against colon 38 cancer cell line using MTT colorimetric assay; format: functional, cell-based; details: Mus musculus

| Structure (SMILES) | IC50 [µg/mL] |
| --- | --- |
| COc1ccc(S(=O)(=O)Nc2cc(Cl)cc3cc[nH]c23)cc1 | 0.64 (≈ 1.9 µM) |
| Nc1ccc(S(=O)(=O)Nc2cccc3cc(O)[nH]c23)cc1 | 1.8 (≈ 5.93 µM) |
| Nc1ccc(S(=O)(=O)Nc2ccc(Br)c3c(Cl)c[nH]c23)cc1 | 0.14 (≈ 0.349 µM) |
| O=[N+]([O-])c1ccc(S(=O)(=O)Nc2cccc3cc(Cl)[nH]c23)cc1 | 19 (≈ 54 µM) |
| Nc1ccc(S(=O)(=O)Nc2ccc(Cl)c3c(Cl)c[nH]c23)cc1 | 0.1 (≈ 0.281 µM) |
| O=[N+]([O-])c1ccc(S(=O)(=O)Nc2ccc(Cl)c3cc[nH]c23)cc1 | 0.67 (≈ 1.9 µM) |
| COc1ccc(NS(=O)(=O)c2ccc(N)cc2)c2[nH]cc(Cl)c12 | 2.3 (≈ 6.54 µM) |
| COc1ccc(S(=O)(=O)Nc2ccc(Cl)c3cc[nH]c23)cc1 | 0.65 (≈ 1.93 µM) |
| N#Cc1ccc(S(=O)(=O)Nc2ccc(Cl)c3cc[nH]c23)cc1 | 0.22 (≈ 0.663 µM) |
| O=S(=O)(Nc1ccc(Cl)c2cc[nH]c12)c1ccc(Cl)cc1 | 0.66 (≈ 1.93 µM) |
| O=[N+]([O-])c1ccc(S(=O)(=O)Nc2cccc3cc[nH]c23)cc1 | 7.2 (≈ 22.7 µM) |
| O=[N+]([O-])c1ccc(S(=O)(=O)Nc2cccc3c(Cl)c[nH]c23)cc1 | 0.34 (≈ 0.967 µM) |
| Cc1ccc(NS(=O)(=O)c2ccc(N)cc2)c2[nH]cc(Cl)c12 | 0.1 (≈ 0.298 µM) |
| Cc1ccc(S(=O)(=O)Nc2cccc3cc(Cl)[nH]c23)cc1 | 0.18 (≈ 0.561 µM) |
| O=S(=O)(Nc1cccc2c(Cl)c[nH]c12)c1ccc(Cl)cc1 | 0.28 (≈ 0.821 µM) |
| Nc1ccc(S(=O)(=O)Nc2cccc3cc(Cl)[nH]c23)cc1 | 2.9 (≈ 9.01 µM) |
| O=S(=O)(Nc1cc(Cl)cc2cc[nH]c12)c1ccc(Cl)cc1 | 8.5 (≈ 24.9 µM) |

system: P388; experiment: Effect on the cell cycle progression using P388 cells at 4.0 ug/mL for 24 hr; GI increase; format: functional, cell-based; details: Mus musculus

| Structure (SMILES) | Cell cycle analysis |
| --- | --- |
| Nc1ccc(S(=O)(=O)Nc2ccc(Br)c3c(Cl)c[nH]c23)cc1 | GI increase |
| Nc1ccc(S(=O)(=O)Nc2ccc(Cl)c3c(Cl)c[nH]c23)cc1 | GI increase |
| O=[N+]([O-])c1ccc(S(=O)(=O)Nc2ccc(Cl)c3cc[nH]c23)cc1 | GI increase |
| N#Cc1ccc(S(=O)(=O)Nc2ccc(Cl)c3cc[nH]c23)cc1 | GI increase |
| O=S(=O)(Nc1ccc(Cl)c2cc[nH]c12)c1ccc(Cl)cc1 | GI increase |
| O=[N+]([O-])c1ccc(S(=O)(=O)Nc2cccc3c(Cl)c[nH]c23)cc1 | GI increase |
| Cc1ccc(NS(=O)(=O)c2ccc(N)cc2)c2[nH]cc(Cl)c12 | GI increase |
| O=S(=O)(Nc1cccc2c(Cl)c[nH]c12)c1ccc(Cl)cc1 | GI increase |

system: KB; experiment: In vitro antiproliferative activity measured against KB cancer cell line using MTT colorimetric assay; format: functional, cell-based; details: Homo sapiens

| Structure (SMILES) | IC50 [µg/mL] |
| --- | --- |
| COc1ccc(S(=O)(=O)Nc2cc(Cl)cc3cc[nH]c23)cc1 | 0.21 (≈ 0.624 µM) |
| Nc1ccc(S(=O)(=O)Nc2cccc3cc(O)[nH]c23)cc1 | 0.86 (≈ 2.84 µM) |
| Nc1ccc(S(=O)(=O)Nc2ccc(Br)c3c(Cl)c[nH]c23)cc1 | 13 (≈ 32.4 µM) |
| O=[N+]([O-])c1ccc(S(=O)(=O)Nc2cccc3cc(Cl)[nH]c23)cc1 | 18 (≈ 51.2 µM) |
| Nc1ccc(S(=O)(=O)Nc2ccc(Cl)c3c(Cl)c[nH]c23)cc1 | 14 (≈ 39.3 µM) |
| O=[N+]([O-])c1ccc(S(=O)(=O)Nc2ccc(Cl)c3cc[nH]c23)cc1 | 9.1 (≈ 25.9 µM) |
| COc1ccc(NS(=O)(=O)c2ccc(N)cc2)c2[nH]cc(Cl)c12 | 20 (≈ 56.8 µM) |
| COc1ccc(S(=O)(=O)Nc2ccc(Cl)c3cc[nH]c23)cc1 | 0.92 (≈ 2.73 µM) |
| N#Cc1ccc(S(=O)(=O)Nc2ccc(Cl)c3cc[nH]c23)cc1 | 15 (≈ 45.2 µM) |
| O=S(=O)(Nc1ccc(Cl)c2cc[nH]c12)c1ccc(Cl)cc1 | 9.7 (≈ 28.4 µM) |
| O=[N+]([O-])c1ccc(S(=O)(=O)Nc2cccc3cc[nH]c23)cc1 | 15 (≈ 47.3 µM) |
| O=[N+]([O-])c1ccc(S(=O)(=O)Nc2cccc3c(Cl)c[nH]c23)cc1 | 14 (≈ 39.8 µM) |
| Cc1ccc(NS(=O)(=O)c2ccc(N)cc2)c2[nH]cc(Cl)c12 | 16 (≈ 47.6 µM) |
| Cc1ccc(S(=O)(=O)Nc2cccc3cc(Cl)[nH]c23)cc1 | 0.11 (≈ 0.343 µM) |
| O=S(=O)(Nc1cccc2c(Cl)c[nH]c12)c1ccc(Cl)cc1 | 8.8 (≈ 25.8 µM) |
| Nc1ccc(S(=O)(=O)Nc2cccc3cc(Cl)[nH]c23)cc1 | 1.4 (≈ 4.35 µM) |
| O=S(=O)(Nc1cc(Cl)cc2cc[nH]c12)c1ccc(Cl)cc1 | 9.1 (≈ 26.7 µM) |

system: P388; experiment: Effect on the cell cycle progression using P388 cells at 4.0 ug/mL for 24 hr; No effect; format: functional, cell-based; details: Mus musculus

| Structure (SMILES) | Cell cycle analysis |
| --- | --- |
| O=[N+]([O-])c1ccc(S(=O)(=O)Nc2cccc3cc(Cl)[nH]c23)cc1 | inactive |
| COc1ccc(NS(=O)(=O)c2ccc(N)cc2)c2[nH]cc(Cl)c12 | inactive |
| O=[N+]([O-])c1ccc(S(=O)(=O)Nc2cccc3cc[nH]c23)cc1 | inactive |
| O=S(=O)(Nc1cc(Cl)cc2cc[nH]c12)c1ccc(Cl)cc1 | inactive |

system: P388; experiment: In vitro antiproliferative activity measured against P388 cancer cell line using MTT colorimetric assay; format: functional, cell-based; details: Mus musculus

| Structure (SMILES) | IC50 [µg/mL] |
| --- | --- |
| COc1ccc(S(=O)(=O)Nc2cc(Cl)cc3cc[nH]c23)cc1 | 0.27 (≈ 0.802 µM) |
| Nc1ccc(S(=O)(=O)Nc2cccc3cc(O)[nH]c23)cc1 | 1.2 (≈ 3.96 µM) |
| Nc1ccc(S(=O)(=O)Nc2ccc(Br)c3c(Cl)c[nH]c23)cc1 | 0.64 (≈ 1.6 µM) |
| O=[N+]([O-])c1ccc(S(=O)(=O)Nc2cccc3cc(Cl)[nH]c23)cc1 | 21 (≈ 59.7 µM) |
| Nc1ccc(S(=O)(=O)Nc2ccc(Cl)c3c(Cl)c[nH]c23)cc1 | 0.49 (≈ 1.38 µM) |
| O=[N+]([O-])c1ccc(S(=O)(=O)Nc2ccc(Cl)c3cc[nH]c23)cc1 | 3.3 (≈ 9.38 µM) |
| COc1ccc(NS(=O)(=O)c2ccc(N)cc2)c2[nH]cc(Cl)c12 | 5.5 (≈ 15.6 µM) |
| COc1ccc(S(=O)(=O)Nc2ccc(Cl)c3cc[nH]c23)cc1 | 1.1 (≈ 3.27 µM) |
| N#Cc1ccc(S(=O)(=O)Nc2ccc(Cl)c3cc[nH]c23)cc1 | 1.8 (≈ 5.43 µM) |
| O=S(=O)(Nc1ccc(Cl)c2cc[nH]c12)c1ccc(Cl)cc1 | 4.6 (≈ 13.5 µM) |
| O=[N+]([O-])c1ccc(S(=O)(=O)Nc2cccc3cc[nH]c23)cc1 | 8.2 (≈ 25.8 µM) |
| O=[N+]([O-])c1ccc(S(=O)(=O)Nc2cccc3c(Cl)c[nH]c23)cc1 | 2.3 (≈ 6.54 µM) |
| Cc1ccc(NS(=O)(=O)c2ccc(N)cc2)c2[nH]cc(Cl)c12 | 0.37 (≈ 1.1 µM) |
| Cc1ccc(S(=O)(=O)Nc2cccc3cc(Cl)[nH]c23)cc1 | 0.14 (≈ 0.436 µM) |
| O=S(=O)(Nc1cccc2c(Cl)c[nH]c12)c1ccc(Cl)cc1 | 4.3 (≈ 12.6 µM) |
| Nc1ccc(S(=O)(=O)Nc2cccc3cc(Cl)[nH]c23)cc1 | 2.2 (≈ 6.84 µM) |
| O=S(=O)(Nc1cc(Cl)cc2cc[nH]c12)c1ccc(Cl)cc1 | 9.9 (≈ 29 µM) |

system: P388; experiment: Effect on the cell cycle progression using P388 cells at 4.0 ug/mL for 24 hr; G2/M arrest & 4C-8C drug treated cells underwent an extra DNA replication without the completion of mitosis; format: functional, cell-based; details: Mus musculus

| Structure (SMILES) | Cell cycle analysis |
| --- | --- |
| Nc1ccc(S(=O)(=O)Nc2cccc3cc(O)[nH]c23)cc1 | G2/M arrest |
| Nc1ccc(S(=O)(=O)Nc2cccc3cc(Cl)[nH]c23)cc1 | G2/M arrest |

system: P388; experiment: Effect on the cell cycle progression using P388 cells at 4.0 ug/mL for 24 hr; Effect:G2/M arrest & 4C-8C drug treated cells underwent an extra DNA replication without the completion of mitosis; format: functional, cell-based; details: Mus musculus

| Structure (SMILES) | Cell cycle analysis |
| --- | --- |
| COc1ccc(S(=O)(=O)Nc2ccc(Cl)c3cc[nH]c23)cc1 | Effect |

system: P388; experiment: Effect on the cell cycle progression using P388 cells at 4.0 ug/mL for 24 hr; G2/M arrest; format: functional, cell-based; details: Mus musculus

| Structure (SMILES) | Cell cycle analysis |
| --- | --- |
| COc1ccc(S(=O)(=O)Nc2cc(Cl)cc3cc[nH]c23)cc1 | G2/M arrest |
| Cc1ccc(S(=O)(=O)Nc2cccc3cc(Cl)[nH]c23)cc1 | G2/M arrest |
